Laboratory results as given in the NIST ThermoML archive (doi:10.1021/je800463k).
± gives the expanded uncertainty stated by the source.

Assay: mn = molality of the nth substance listed, in mol/kg
Conditions: 101 kPa, Liquid; for electrical conductivity: Frequency=0.001 MHz, Alternating current cell with electrodes; for speed of sound: Frequency=2 MHz; for mass density: Pycnometric method

## [Mg+2].[O-][Cl+3]([O-])([O-])[O-].[O-][Cl+3]([O-])([O-])[O-] [magnesium perchlorate] + CO
273.15 K, m1 = 0.0542
  electrical conductivity: 0.2699 ± 0.0001 S/m
  speed of sound: 1195.2 ± 6.8 m/s
  viscosity: 0.8742 ± 0.044 mPa·s
273.15 K, m1 = 0.078
  electrical conductivity: 0.4031 ± 0.0001 S/m
  speed of sound: 1201.1 ± 6.8 m/s
273.15 K, m1 = 0.0925
  electrical conductivity: 0.4435 ± 0.0001 S/m
  speed of sound: 1203.6 ± 6.8 m/s
  viscosity: 0.9094 ± 0.046 mPa·s
273.15 K, m1 = 0.1673
  electrical conductivity: 0.6702 ± 0.0001 S/m
  speed of sound: 1212.8 ± 6.9 m/s
  viscosity: 0.9874 ± 0.049 mPa·s
273.15 K, m1 = 0.2872
  electrical conductivity: 0.9762 ± 0.0001 S/m
  speed of sound: 1226 ± 6.9 m/s
  viscosity: 1.13 ± 0.055 mPa·s
273.15 K, m1 = 0.3228
  electrical conductivity: 1.058 ± 0.001 S/m
  speed of sound: 1230.6 ± 7 m/s
  viscosity: 1.168 ± 0.057 mPa·s
273.15 K, m1 = 0.4313
  electrical conductivity: 1.299 ± 0.001 S/m
  speed of sound: 1245.5 ± 7 m/s
  viscosity: 1.329 ± 0.064 mPa·s
273.15 K, m1 = 0.6444
  electrical conductivity: 1.752 ± 0.001 S/m
  speed of sound: 1268.2 ± 7.1 m/s
  viscosity: 1.64 ± 0.077 mPa·s
273.15 K, m1 = 1.059
  electrical conductivity: 2.122 ± 0.001 S/m
  speed of sound: 1308.9 ± 7.3 m/s
  viscosity: 2.393 ± 0.11 mPa·s
273.15 K, m1 = 1.395
  electrical conductivity: 2.273 ± 0.001 S/m
  speed of sound: 1342.5 ± 7.4 m/s
  viscosity: 3.292 ± 0.15 mPa·s
273.15 K, m1 = 1.717
  electrical conductivity: 2.343 ± 0.001 S/m
  speed of sound: 1366.9 ± 7.5 m/s
  viscosity: 3.854 ± 0.17 mPa·s
273.15 K, m1 = 2
  electrical conductivity: 2.355 ± 0.001 S/m
  speed of sound: 1385.5 ± 7.6 m/s
  viscosity: 4.766 ± 0.21 mPa·s
283.15 K, m1 = 0.0542
  electrical conductivity: 0.3054 ± 0.0001 S/m
  speed of sound: 1162.7 ± 6.7 m/s
  viscosity: 0.7345 ± 0.038 mPa·s
283.15 K, m1 = 0.078
  electrical conductivity: 0.4563 ± 0.0001 S/m
  speed of sound: 1167.8 ± 6.7 m/s
283.15 K, m1 = 0.0925
  electrical conductivity: 0.5023 ± 0.0001 S/m
  speed of sound: 1170.8 ± 6.7 m/s
  viscosity: 0.768 ± 0.04 mPa·s
283.15 K, m1 = 0.1673
  electrical conductivity: 0.7619 ± 0.0001 S/m
  speed of sound: 1178.9 ± 6.7 m/s
  viscosity: 0.8318 ± 0.042 mPa·s
283.15 K, m1 = 0.2872
  electrical conductivity: 1.116 ± 0.001 S/m
  speed of sound: 1193.9 ± 6.8 m/s
  viscosity: 0.9437 ± 0.047 mPa·s
283.15 K, m1 = 0.3228
  electrical conductivity: 1.213 ± 0.001 S/m
  speed of sound: 1197.5 ± 6.8 m/s
  viscosity: 0.9745 ± 0.048 mPa·s
283.15 K, m1 = 0.4313
  electrical conductivity: 1.497 ± 0.001 S/m
  speed of sound: 1213.2 ± 6.9 m/s
  viscosity: 1.102 ± 0.054 mPa·s
283.15 K, m1 = 0.6444
  electrical conductivity: 2.001 ± 0.001 S/m
  speed of sound: 1236.8 ± 7 m/s
  viscosity: 1.342 ± 0.064 mPa·s
283.15 K, m1 = 1.059
  electrical conductivity: 2.513 ± 0.001 S/m
  speed of sound: 1278.5 ± 7.1 m/s
  viscosity: 1.928 ± 0.089 mPa·s
283.15 K, m1 = 1.395
  electrical conductivity: 2.731 ± 0.001 S/m
  speed of sound: 1313.4 ± 7.3 m/s
  viscosity: 2.608 ± 0.12 mPa·s
283.15 K, m1 = 1.717
  electrical conductivity: 2.848 ± 0.001 S/m
  speed of sound: 1336.5 ± 7.4 m/s
  viscosity: 3.023 ± 0.14 mPa·s
283.15 K, m1 = 2
  electrical conductivity: 2.892 ± 0.001 S/m
  speed of sound: 1358.1 ± 7.5 m/s
  viscosity: 3.682 ± 0.16 mPa·s
293.15 K, m1 = 0.0542
  electrical conductivity: 0.3414 ± 0.0001 S/m
  speed of sound: 1128.4 ± 6.5 m/s
  viscosity: 0.6286 ± 0.034 mPa·s
293.15 K, m1 = 0.078
  electrical conductivity: 0.5074 ± 0.0001 S/m
  speed of sound: 1134.9 ± 6.6 m/s
293.15 K, m1 = 0.0925
  electrical conductivity: 0.5615 ± 0.0001 S/m
  speed of sound: 1137.7 ± 6.6 m/s
  viscosity: 0.6569 ± 0.035 mPa·s
293.15 K, m1 = 0.1673
  electrical conductivity: 0.854 ± 0.0001 S/m
  speed of sound: 1146 ± 6.6 m/s
  viscosity: 0.7098 ± 0.037 mPa·s
293.15 K, m1 = 0.2872
  electrical conductivity: 1.253 ± 0.001 S/m
  speed of sound: 1161.8 ± 6.7 m/s
  viscosity: 0.7995 ± 0.041 mPa·s
293.15 K, m1 = 0.3228
  electrical conductivity: 1.37 ± 0.001 S/m
  speed of sound: 1165.4 ± 6.7 m/s
  viscosity: 0.8248 ± 0.042 mPa·s
293.15 K, m1 = 0.4313
  electrical conductivity: 1.702 ± 0.001 S/m
  speed of sound: 1181.4 ± 6.8 m/s
  viscosity: 0.9286 ± 0.046 mPa·s
293.15 K, m1 = 0.6444
  electrical conductivity: 2.209 ± 0.001 S/m
  speed of sound: 1205.9 ± 6.9 m/s
  viscosity: 1.112 ± 0.054 mPa·s
293.15 K, m1 = 1.059
  electrical conductivity: 2.926 ± 0.001 S/m
  speed of sound: 1247.5 ± 7 m/s
  viscosity: 1.585 ± 0.075 mPa·s
293.15 K, m1 = 1.395
  electrical conductivity: 3.221 ± 0.001 S/m
  speed of sound: 1282.1 ± 7.2 m/s
  viscosity: 2.11 ± 0.097 mPa·s
293.15 K, m1 = 1.717
  electrical conductivity: 3.39 ± 0.001 S/m
  speed of sound: 1307.5 ± 7.3 m/s
  viscosity: 2.43 ± 0.11 mPa·s
293.15 K, m1 = 2
  electrical conductivity: 3.474 ± 0.001 S/m
  speed of sound: 1329.1 ± 7.4 m/s
  viscosity: 2.923 ± 0.13 mPa·s
294 K, m1 = 0.078
  mass density: 802.89 ± 4.1 kg/m3
295.3 K, m1 = 0.0925
  mass density: 802.82 ± 4.5 kg/m3
296.85 K, m1 = 0.3228
  mass density: 829.87 ± 15 kg/m3
296.9 K, m1 = 0.2872
  mass density: 825.72 ± 13 kg/m3
297.7 K, m1 = 0.078
  mass density: 799.44 ± 3.8 kg/m3
298 K, m1 = 0.0925
  mass density: 800.22 ± 4.6 kg/m3
298.15 K, m1 = 0.0542
  electrical conductivity: 0.3599 ± 0.0001 S/m
  speed of sound: 1111.3 ± 6.5 m/s
  viscosity: 0.5841 ± 0.032 mPa·s
298.15 K, m1 = 0.078
  electrical conductivity: 0.5344 ± 0.0001 S/m
  speed of sound: 1119.1 ± 6.5 m/s
298.15 K, m1 = 0.0925
  electrical conductivity: 0.5917 ± 0.0001 S/m
  speed of sound: 1121.2 ± 6.5 m/s
  viscosity: 0.6098 ± 0.033 mPa·s
298.15 K, m1 = 0.1673
  electrical conductivity: 0.9009 ± 0.0001 S/m
  speed of sound: 1129.8 ± 6.5 m/s
  viscosity: 0.656 ± 0.035 mPa·s
298.15 K, m1 = 0.2872
  electrical conductivity: 1.332 ± 0.001 S/m
  speed of sound: 1145.7 ± 6.6 m/s
  viscosity: 0.7391 ± 0.038 mPa·s
298.15 K, m1 = 0.3228
  electrical conductivity: 1.452 ± 0.001 S/m
  speed of sound: 1149.1 ± 6.6 m/s
  viscosity: 0.7618 ± 0.039 mPa·s
298.15 K, m1 = 0.4313
  electrical conductivity: 1.807 ± 0.001 S/m
  speed of sound: 1165.2 ± 6.7 m/s
  viscosity: 0.856 ± 0.043 mPa·s
298.15 K, m1 = 0.6444
  electrical conductivity: 2.389 ± 0.001 S/m
  speed of sound: 1189.2 ± 6.8 m/s
  viscosity: 1.019 ± 0.05 mPa·s
298.15 K, m1 = 1.059
  electrical conductivity: 3.143 ± 0.001 S/m
  speed of sound: 1232 ± 7 m/s
  viscosity: 1.446 ± 0.069 mPa·s
298.15 K, m1 = 1.395
  electrical conductivity: 3.48 ± 0.001 S/m
  speed of sound: 1267.7 ± 7.1 m/s
  viscosity: 1.91 ± 0.089 mPa·s
298.15 K, m1 = 1.717
  electrical conductivity: 3.683 ± 0.001 S/m
  speed of sound: 1293.2 ± 7.2 m/s
  viscosity: 2.196 ± 0.1 mPa·s
298.15 K, m1 = 2
  electrical conductivity: 3.779 ± 0.001 S/m
  speed of sound: 1314.4 ± 7.3 m/s
  viscosity: 2.624 ± 0.12 mPa·s
298.3 K, m1 = 0.1673
  mass density: 809.54 ± 8.6 kg/m3
299.45 K, m1 = 0.078
  mass density: 797.76 ± 3.9 kg/m3
299.75 K, m1 = 0.3228
  mass density: 827.21 ± 15 kg/m3
299.8 K, m1 = 0.0925
  mass density: 798.59 ± 4.7 kg/m3
299.8 K, m1 = 0.2872
  mass density: 823.08 ± 13 kg/m3
301.15 K, m1 = 0.078
  mass density: 796.1 ± 3.9 kg/m3
301.15 K, m1 = 0.1673
  mass density: 806.95 ± 8.2 kg/m3
